Where a SMILES comes first, the peptide text is derived from it. [ ]: non-standard residue; d: D form. The star is where a group is joined. 5FAM = O=C1OC2(c3ccc(O)cc3Oc3cc(O)ccc32)c2ccc(C(=O)*)cc21; Pro(cis-4-guanidino) = NC(N)=N[C@@H]1CN[C@H](C(=O)O)C1; Cha = N[C@@H](CC1CCCCC1)C(=O)O; Ahx = NCCCCCC(=O)O
Assays:
[1] = RP-HPLC retention time as estimate of hydrophobicity (C4 column, 30 to 55% B); format: physicochemical; details: RP-HPLC used as estimate of hydrophobicity, A H2O/MeCN/TFA (1000/10/1), gradient 30 to 55% B, 20 min, CF-Ahx-labelled peptides
Method: 2 (A) General structure of amphipathic peptides, CF-Ahx-[XZZ]3-NH2; CF = 5(6)-Carboxyfluorescein, Ahx = aminohexanoic acid. (B) CD spectra of the peptides, recorded at 50 μM in H2O, pH 5.7. For a comparison with a spectrum of a Gup oligomer, see Figure S2. (C) Retention time of the peptides measured by RP-HPLC on a C4 column with a mobile phase from 30 to 55% of MeCN in H2O/MeCN/TFA (1000/10/1). (D) Representative confocal microscopic images of live MCF-7 cells, incubated for 1 h at 37 °C with peptide solutions at a concentration of 10 μM in DMEM + 1% FBS (left, in green). Mitochondria were stained with Deep Red MitoTracker (middle, in red) and merged images (right, orange/yellow indicating colocalization) with Hoechst33342 stain (blue) for the nucleus. TEXT PRINTED IN THE PICTURE: (C) (ValZZ)3: tr(min): 1.8 | (C) (PheZZ)3: tr(min): 2.9 | (C) (TrpZZ)3: tr(min): 3.2 | (C) (ChaZZ)3: tr(min): 5.4 DOUBTS OF THE COPYIST ABOUT THIS PICTURE: Panel C, column head: the small lowered letter after t is read as r (tr), not certain
The Gup residues should preorganize the peptides into a PPII helix with one hydrophobic and two cationic edges along the PPII helical peptide. Indeed, circular dichroism (CD) spectra of the peptides display the characteristic minimum and maximum at ∼206 nm and ∼224 nm, respectively, of a PPII helix (Figure B). The spectra imply that the non-proline residues in every third position are tolerated within the helical structure. We used reverse phase high performance liquid chromatography (RP-HPLC) for an estimate of the hydrophobicity of the peptides. On a C4 column using two mobile phases A (H2O/MeCN/TFA (1000/10/1)) and B (MeCN) with a gradient of 30% to 55% B, all peptides eluted over 20 min but with different retention times (Figure C). The Cha-containing peptide had the longest retention time, indicating the highest hydrophobicity within the series, followed by the Trp-, Phe-, and Val-peptides.

MCF-7 cells = test: Flow cytometry at 4 °C versus 37 °C; format: cell-based; details: MCF-7, 20 µM, 1 h
Method: MCF-7 cells were seeded in a 24-well plate at 150′000 cells/well in DMEM (1 mL, 10% FCS), and allowed to adhere overnight. The medium was removed, the cells were washed with PBS (250 μL, 1x) and incubated with the peptide solution at 20 μM, 10 μM, 5 μM or 2.5 μM in medium (200 μL, 1% FCS) for 1 h at 37 °C. The medium was removed, and the cells were washed with PBS (250 μL, 2x). Trypsin (100 μL, 0.05%) was added, and the cells were incubated at 37 °C for 5 min. D-PBS with Mg^2+ and Ca^2+ (300 μL, 4 °C) was added, the cells were resuspended and centrifuged for 5 min at 0.4 rcf. The supernatant was carefully removed, and the cells were resuspended in a solution of PBS containing 1.5 μM PI and 2 mM EDTA (400 μL at 4 °C). […] Each sample contained 10′000 cells and was analyzed in triplicate. […]
Figure S9. […] After 1 h incubation at 4 °C, the fluorescence signal is in case of most of the peptides lower, indicating an endocytosis pathway. […]
of different entry mechanisms. The indicated P-values were determined using one-way ANOVA followed by Tukey’s […]
(also on this page, place not known: µM µM °C µM °C (ChaZZ) µM °C (ChaZZ) µM °C (ChaZZ) µM °C 20000Mean fluorescence intensity (ChaZZ)3 °CCells °C (ChaZZ) µM °C (ChaZZ) µM °C (ChaZZ) 3-Cha µM °C (ChaZZ) 3-Cha µM °C (ChaZZ) 3-Cha µM °C (ChaZZ) 3-Cha µM °C (ChaZZ) 3-Cha µM °C (ChaZZ) 3-Cha µM °C 30000Mean fluorescence intensity)

| Compound | Retention time tr [1] | Fluorescence signal after incubation at 4 °C compared with 37 °C (FACS) (MCF-7 cells) |
| --- | --- | --- |
| N=C(N)N[C@H]1C[C@@H](C(=O)N2C[C@@H](NC(=N)N)C[C@H]2C(=O)N[C@@H](CC2CCCCC2)C(=O)N2C[C@@H](NC(=N)N)C[C@H]2C(=O)N2C[C@@H](NC(=N)N)C[C@H]2C(=O)N[C@@H](CC2CCCCC2)C(=O)N2C[C@@H](NC(=N)N)C[C@H]2C(=O)N2C[C@@H](NC(=N)N)C[C@H]2C(=O)N[C@@H](CC2CCCCC2)C(N)=O)N(C(=O)[C@H](CC2CCCCC2)NC(=O)CCCCCNC(=O)c2ccc3c(c2)C(=O)OC32c3ccc(O)cc3Oc3cc(O)ccc32)C1 [(ChaZZ)3-Cha, CF-Ahx-(ChaZZ)3-Cha-NH2] ({5FAM-Ahx}-[Cha][Pro(cis-4-guanidino)][Pro(cis-4-guanidino)][Cha][Pro(cis-4-guanidino)][Pro(cis-4-guanidino)][Cha][Pro(cis-4-guanidino)][Pro(cis-4-guanidino)][Cha]-NH2) | 8.5 min |  |
| CF-Ahx-(ChaZZ)3-NH2 |  | close-to-level signal |
| CF-Ahx-(ChaZZ)2-Cha-NH2 | 8.1 min |  |
